Test system: THP-1 cells
Experiment: THP-1 differentiation induction-promoting activity
Format: cell-based
Details: Homo sapiens, THP-1; lowest concentration necessary to show 50% activity relative to the activity value of erythromycin A at 100 μM; PMA 1-2 μM, 72-96 hr
Method: As one index of the anti-inflammatory action of the compound of the present invention, the differentiation induction-promoting activity of THP-1 cell was measured. The measurement was performed as shown below.
THP-1 cells (ATCC No. TIB-202) were adjusted to a concentration of 2×10^5 cells/ml with a medium (RPMI 1640), PMA was added thereto to a final concentration of 1-2 μM, and the mixture was dispensed to each well of a 96 well plate by 100 μl. A solution (100 μl) containing a test substance was adjusted to an appropriate concentration with the medium and added to each well. The mixture was stirred by gently shaking the plate, and incubated under 37° C., 5% CO2 conditions for 72-96 hr. Each well was washed with PBS, a medium containing the viable cell measurement reagent SF (Nacalai Tesque) was added at 100 μl/well and the mixture was incubated under the conditions of 37° C., 5% CO2 for 3-5 hr. The absorbance was measured with a plate reader.
In the Table, the activity value is the lowest concentration necessary for the test compound to show a 50% activity value relative to the activity value of erythromycin A at 100 μM in this experiment.
THP-1 differentiation induction-promoting activity: The lowest concentration necessary for each compound to show 50% activity relative to the activity value of erythromycin A at 100 μM.

Structure (SMILES) | minimal effective concentration
COC1(C)C[C@H](O[C@H]2[C@H](C)[C@@H](O[C@@H]3OC(C)CC(N(C)C)C3O)[C@]3(C)CC(C)C(O3)[C@H](C)[C@H](C(C)=O)OC(=O)[C@@H]2C)OC(C)[C@@H]1O (stereo partly shown) [EM906, de[12-(1-hydroxypropyl)]-9-dihydro-12-oxo-pseudoerythromycin A 6,9-epoxide] | 30 µM
CC[C@@H](O)[C@@](C)(O)[C@@H]1OC(=O)[C@H](C)C(=O)[C@H](C)[C@H](O[C@@H]2OC(C)CC(N(C)Cc3ccc(Cl)cc3)C2O)[C@]2(C)CC(C)C(O2)[C@@H]1C (stereo partly shown) [EM949, de(3′-N-methyl)-3′-N-(p-chlorobenzyl)-de(3-O-cladinosyl)-9-dihydro-3-keto-pseudoerythromycin A 6,9-epoxide] | 10 µM
CC[C@H]1OC(=O)O[C@@]1(C)[C@@H]1OC(=O)[C@H](C)C(=O)[C@H](C)[C@@H](O[C@@H]2OC(C)CC(N(C)C)C2O)[C@]2(C)CC(C)C(O2)[C@@H]1C (stereo partly shown) [EM918, de(3-O-cladinosyl)-9-dihydro-3-keto-pseudoerythromycin A 6,9-epoxide 12,13-carbonate] | 30 µM
CC[C@@H](OC(C)=O)[C@@](C)(O)[C@@H]1OC(=O)[C@H](C)[C@@H](O[C@H]2CC(C)(OC)C(OC(C)=O)C(C)O2)[C@H](C)[C@@H](O[C@@H]2OC(C)CC(N(C)C)C2O)[C@]2(C)CC(C)C(O2)[C@@H]1C (stereo partly shown) [EM911, 4″,13-O-diacetyl-9-dihydro-pseudoerythromycin A 6,9-epoxide] | 10 µM
CC[C@H]1OC(=O)O[C@@]1(C)[C@@H]1OC(=O)[C@H](C)C(=O)[C@H](C)[C@@H](O[C@@H]2OC(C)CC(N(C)C)C2OC(C)=O)[C@]2(C)CC(C)C(O2)[C@@H]1C (stereo partly shown) [EM917, 2′-O-acetyl-de(3-O-cladinosyl)-9-dihydro-3-keto-pseudoerythromycin A 6,9-epoxide 12,13-carbonate] | 30 µM
CC[C@@H](O)[C@@](C)(O)[C@@H]1OC(=O)[C@H](C)[C@@H](O)[C@H](C)[C@H](O[C@@H]2OC(C)CC(N(C)Cc3ccc(Cl)cc3)C2O)[C@@]2(C)CC(C)C(O2)[C@@H]1C (stereo partly shown) [EM925, de(3′-N-methyl)-3′-N-(p-chlorobenzyl)-de(3-O-cladinosyl)-9-dihydro-pseudoerythromycin A 6,9-epoxide] | 30 µM
CC[C@H]1OC(=O)O[C@@]1(C)[C@@H]1OC(=O)[C@H](C)C(=O)[C@H](C)[C@@H](O[C@@H]2OC(C)CC(N3CCOCC3)C2O)[C@]2(C)CC(C)C(O2)[C@@H]1C (stereo partly shown) [EM935, de(3-O-cladinosyl)-9-dihydro-3-keto-de(3′-dimethylamino)-3′-morpholino-pseudoerythromycin A 6,9-epoxide 12,13-carbonate] | 30 µM
CC[C@H]1OC(C)(C)O[C@@]1(C)[C@@H]1OC(=O)[C@H](C)C(=O)[C@H](C)[C@@H](O[C@@H]2OC(C)CC(N(C)Cc3ccc(Cl)cc3)C2O)[C@]2(C)CC(C)C(O2)[C@@H]1C (stereo partly shown) [EM947, de(3′-N-methyl)-3′-N-(p-chlorobenzyl)-de(3-O-cladinosyl)-9-dihydro-3-keto-pseudoerythromycin A 6,9-epoxide 12,13-isopropylidene Acetal] | 10 µM
CC[C@@H](O)[C@@](C)(O)[C@@H]1OC(=O)[C@H](C)[C@@H](O[C@H]2CC(C)(OC)[C@@H](O)C(C)O2)[C@H](C)[C@@H](O[C@@H]2OC(C)CC(N(Cc3ccccc3)Cc3ccccc3)C2O)[C@@]2(C)CC(C)C(O2)[C@@H]1C (stereo partly shown) [EM904, bis-de(3′-N-methyl)-bis-(3′-N-benzyl)-9-dihydro-pseudoerythromycin A 6,9-epoxide] | 10 µM
CC[C@@H](O)[C@@](C)(O)[C@@H]1OC(=O)[C@H](C)[C@@H](O)[C@H](C)[C@@H](O[C@@H]2OC(C)CC(N(C)C)C2O)[C@]2(C)CC(C)C(O2)[C@@H]1C (stereo partly shown) [EM910, de(3-O-cladinosyl)-9-dihydro-pseudoerythromycin A 6,9-epoxide] | 100 µM
CC[C@@H](O)[C@@](C)(O)[C@@H]1OC(=O)[C@H](C)[C@@H](O[C@H]2CC(C)(OC)[C@@H](O)C(C)O2)[C@H](C)[C@@H](O[C@@H]2OC(C)CC(N(C)Cc3ccccc3)C2O)[C@@]2(C)CC(C)C(O2)[C@@H]1C (stereo partly shown) [EM902, de(3′-N-methyl)-3′-N-benzyl-9-dihydro-pseudoerythromycin A 6,9-epoxide] | 30 µM
CC[C@H]1OC(=O)O[C@@]1(C)[C@@H]1OC(=O)[C@H](C)[C@@H](O)[C@H](C)[C@@H](O[C@@H]2OC(C)CC(N(C)C(=O)OCc3ccccc3)C2OC(=O)OCc2ccccc2)[C@]2(C)CC(C)C(O2)[C@@H]1C (stereo partly shown) [EM936, de(3′-N-methyl)-2′-O-3′-N-bis(benzyloxycarbonyl)-de(3-O-cladinosyl)-9-dihydro-pseudoerythromycin A 6,9-epoxide 12,13-carbonate] | 10 µM
COC1(C)C[C@H](O[C@H]2[C@H](C)[C@@H](O[C@@H]3OC(C)CC(N(C)C)C3O)[C@]3(C)CC(C)C(O3)[C@H](C)[C@H](C(C)O)OC(=O)[C@@H]2C)OC(C)[C@@H]1O (stereo partly shown) [EM908, de[12-(1-hydroxypropyl)]-9-dihydro-pseudoerythromycin A 6,9-epoxide] | 10 µM
CC[C@H]1OC(=O)O[C@@]1(C)[C@@H]1OC(=O)[C@H](C)[C@@H](O)[C@H](C)[C@@H](O[C@@H]2OC(C)CC(N3CCOCC3)C2O)[C@]2(C)CC(C)C(O2)[C@@H]1C (stereo partly shown) [EM946, de(3-O-cladinosyl)-9-dihydro-de(3′-dimethylamino)-3′-morpholino-pseudoerythromycin A 6,9-epoxide 12,13-carbonate] | 100 µM
CC[C@@H]1O[C@@]1(C)[C@@H]1OC(=O)[C@H](C)[C@@H](O[C@H]2CC(C)(OC)[C@@H](O)C(C)O2)[C@H](C)[C@@H](O[C@@H]2OC(C)CC(N(C)C)C2O)[C@]2(C)CC(C)C(O2)[C@@H]1C (stereo partly shown) [EM909, 12,13-epoxy-9-dihydro-pseudoerythromycin A 6,9-epoxide] | 30 µM
CC[C@H]1OC(=O)O[C@@]1(C)[C@@H]1OC(=O)[C@H](C)C(=O)[C@H](C)[C@@H](O[C@@H]2OC(C)CC(N3CCOCC3)C2OC(C)=O)[C@]2(C)CC(C)C(O2)[C@@H]1C (stereo partly shown) [EM932, 2′-O-acetyl-de(3-O-cladinosyl)-9-dihydro-3-keto-de(3′-dimethylamino)-3′-morpholino-pseudoerythromycin A 6,9-epoxide 12,13-carbonate] | 10 µM
CC[C@@H](O)[C@@](C)(O)[C@@H]1OC(=O)[C@H](C)[C@@H](O[C@H]2CC(C)(OC)[C@@H](O)C(C)O2)[C@H](C)[C@@H](O[C@@H]2OC(C)CC(N)C2O)[C@]2(C)CC(C)C(O2)[C@@H]1C (stereo partly shown) [EM903, bis-de(3′-N-methyl)-9-dihydro-pseudoerythromycin A 6,9-epoxide] | 30 µM
CC[C@@H](O)[C@@](C)(O)[C@@H]1OC(=O)[C@H](C)[C@@H](O[C@H]2CC(C)(OC)[C@@H](O)C(C)O2)[C@H](C)[C@@H](O[C@@H]2OC(C)CC(N(C)C)C2OC(C)=O)[C@]2(C)CC(C)C(O2)[C@@H]1C (stereo partly shown) [EM913, 2′-O-acetyl-9-dihydro-pseudoerythromycin A 6,9-epoxide] | 30 µM

Same assay, conditions: lowest concentration necessary to show 50% activity relative to the activity value of erythromycin A at 100 μM; PMA 1-2 μM, 72-96 hr

Structure (SMILES) | THP-1 differentiation induction-promoting activity
CO[C@]1(C)C[C@H](O[C@H]2[C@H](C)[C@@H](O[C@@H]3O[C@H](C)C[C@H](N(C)C)[C@H]3O)[C@@]3(C)C[C@@H](C)[C@H](O3)[C@H](C)[C@H](/C(C)=N/O)OC(=O)[C@@H]2C)O[C@@H](C)[C@@H]1O [EM907, de[12-(1-hydroxypropyl)]-9-dihydro-12-hydroxyoxime-pseudoerythromycin A 6,9-epoxide] | 30

Source: patent publication US8133871B2, “Dihydropseudoerythromycin derivatives” (The Kitasato Institute, priority 2005, dated 2012)
